# Assay results published in patent US20160130226A1, “SPIRO-SUBSTITUTED OXINDOLE DERIVATIVES HAVING AMPK ACTIVITY” (BOEHRINGER INGELHEIM INTERNATIONAL GMBH, priority 2013, published 2016).
# How the values were obtained:
# AMPK beta 1 = molecular target: T1, AMPK beta 1 (Homo sapiens, UniProt Q13131+Q9Y478); experiment: in-cell-ELISA for phospho-ACC: activation of AMPK, beta 1 (HepG2 cells / C2C12 myotubes); format: cell-based; settings: 2 h, percentage activation over vehicle control; for activation at 1 µM / activation at 3 µM / activation at 10 µM: read-out: Percentage activation of beta 1 at given concentration
# T1 construct: in-cell-ELISA for phospho-ACC (Acetyl-CoA carboxylase 1) in HepG2 cells (liver); endogenous in cells; host or cells: HepG2 (assignment to the beta 1 column inferred)
# T1 sequence (Q9Y478 2-270 limits assumed): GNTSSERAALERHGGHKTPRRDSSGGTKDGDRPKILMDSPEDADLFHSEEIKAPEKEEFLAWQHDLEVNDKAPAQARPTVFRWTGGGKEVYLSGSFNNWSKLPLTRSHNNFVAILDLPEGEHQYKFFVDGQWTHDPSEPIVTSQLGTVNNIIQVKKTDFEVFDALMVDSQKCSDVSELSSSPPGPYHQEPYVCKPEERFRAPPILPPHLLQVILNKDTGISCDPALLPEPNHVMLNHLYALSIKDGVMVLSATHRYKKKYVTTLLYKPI
# T1 sequence (Q13131 whole entry): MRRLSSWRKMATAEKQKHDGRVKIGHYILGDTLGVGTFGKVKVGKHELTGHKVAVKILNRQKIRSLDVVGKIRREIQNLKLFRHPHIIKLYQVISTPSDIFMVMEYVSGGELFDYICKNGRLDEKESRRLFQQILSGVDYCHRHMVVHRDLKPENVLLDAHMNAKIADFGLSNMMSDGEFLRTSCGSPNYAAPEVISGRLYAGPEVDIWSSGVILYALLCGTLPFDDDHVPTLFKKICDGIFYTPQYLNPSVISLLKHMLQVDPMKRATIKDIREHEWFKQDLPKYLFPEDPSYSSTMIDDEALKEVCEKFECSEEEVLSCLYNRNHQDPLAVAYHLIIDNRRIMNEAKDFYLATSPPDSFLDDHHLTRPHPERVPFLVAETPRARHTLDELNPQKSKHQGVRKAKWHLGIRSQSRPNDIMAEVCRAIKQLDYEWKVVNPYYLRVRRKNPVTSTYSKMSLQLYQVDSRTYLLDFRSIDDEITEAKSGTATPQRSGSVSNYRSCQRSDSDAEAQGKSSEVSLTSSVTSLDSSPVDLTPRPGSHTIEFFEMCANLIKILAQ
# T1 sequence (P54619 whole entry partner): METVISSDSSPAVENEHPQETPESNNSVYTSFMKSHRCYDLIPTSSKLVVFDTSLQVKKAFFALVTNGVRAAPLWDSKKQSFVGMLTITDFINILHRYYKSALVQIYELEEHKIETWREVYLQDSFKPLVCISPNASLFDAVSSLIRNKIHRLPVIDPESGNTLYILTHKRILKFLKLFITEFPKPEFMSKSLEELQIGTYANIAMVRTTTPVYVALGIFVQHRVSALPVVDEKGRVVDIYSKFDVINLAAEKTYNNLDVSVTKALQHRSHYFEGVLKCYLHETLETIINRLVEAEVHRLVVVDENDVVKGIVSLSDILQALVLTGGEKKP
# Protocol: (§1) Activation of AMPK by various compounds were measured using in-cell-ELISA for phospho-ACC (Acetyl-CoA carboxylase 1) in HepG2 cells (liver) and fully differentiated myotubes (C2C12 cells) grown in 96 well plate. Cells were treated with 1 μM, 3 μM or 10 μM of the molecule (Example) for 2 h in serum free DMEM media. After methanol fixation, cells were blocked with BSA followed by addition of anti-phospho ACC antibody (Cell Signaling) and HRP conjugated secondary antibody. Absorbance values taken at 450 nm were normalized with total DNA (Hoechest stain). Results were expressed as percentage activation over vehicle control.
# (§2) Percentage activation at compound (Example) concentration of 1, 3 or 10 μM for compounds according to the invention are shown in the following table. The number of the compound corresponds to the number of the Example (Ex) in the experimental section.
# AMPK beta 2 = molecular target: T2, AMPK beta 2 (Mus musculus, UniProt Q6PAM0+Q8BRK8); experiment: in-cell-ELISA for phospho-ACC: activation of AMPK, beta 2 (HepG2 cells / C2C12 myotubes); format: cell-based; settings: 2 h, percentage activation over vehicle control; for activation at 3 µM / activation at 10 µM / activation at 1 µM: read-out: Percentage activation of beta 2 at given concentration
# T2 construct: fully differentiated myotubes (C2C12 cells) grown in 96 well plate; endogenous in cells; host or cells: C2C12 myotubes (assignment to the beta 2 column inferred)
# T2 sequence (Q6PAM0 whole entry): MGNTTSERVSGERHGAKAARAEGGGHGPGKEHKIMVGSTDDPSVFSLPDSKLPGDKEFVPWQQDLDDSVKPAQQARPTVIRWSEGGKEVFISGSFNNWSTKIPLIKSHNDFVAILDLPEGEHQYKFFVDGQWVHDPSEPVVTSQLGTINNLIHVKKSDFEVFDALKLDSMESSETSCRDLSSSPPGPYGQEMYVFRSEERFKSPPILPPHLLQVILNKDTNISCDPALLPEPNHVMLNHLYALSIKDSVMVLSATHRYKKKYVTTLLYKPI
# T2 sequence (Q8BRK8 whole entry): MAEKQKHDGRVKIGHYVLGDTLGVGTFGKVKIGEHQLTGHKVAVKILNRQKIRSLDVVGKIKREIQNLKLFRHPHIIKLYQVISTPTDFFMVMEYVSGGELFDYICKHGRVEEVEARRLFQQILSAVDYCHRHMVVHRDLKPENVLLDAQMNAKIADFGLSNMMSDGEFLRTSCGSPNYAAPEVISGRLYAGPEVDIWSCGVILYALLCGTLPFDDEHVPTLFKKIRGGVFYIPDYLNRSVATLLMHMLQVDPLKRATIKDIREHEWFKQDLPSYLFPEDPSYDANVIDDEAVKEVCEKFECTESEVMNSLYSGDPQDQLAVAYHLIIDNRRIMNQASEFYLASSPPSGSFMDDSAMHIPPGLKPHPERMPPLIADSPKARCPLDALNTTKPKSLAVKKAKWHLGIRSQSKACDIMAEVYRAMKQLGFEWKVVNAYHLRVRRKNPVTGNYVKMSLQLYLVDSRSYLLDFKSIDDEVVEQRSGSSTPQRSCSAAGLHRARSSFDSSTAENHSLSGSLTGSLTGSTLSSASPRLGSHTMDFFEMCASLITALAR
# T2 sequence (O54950 whole entry partner): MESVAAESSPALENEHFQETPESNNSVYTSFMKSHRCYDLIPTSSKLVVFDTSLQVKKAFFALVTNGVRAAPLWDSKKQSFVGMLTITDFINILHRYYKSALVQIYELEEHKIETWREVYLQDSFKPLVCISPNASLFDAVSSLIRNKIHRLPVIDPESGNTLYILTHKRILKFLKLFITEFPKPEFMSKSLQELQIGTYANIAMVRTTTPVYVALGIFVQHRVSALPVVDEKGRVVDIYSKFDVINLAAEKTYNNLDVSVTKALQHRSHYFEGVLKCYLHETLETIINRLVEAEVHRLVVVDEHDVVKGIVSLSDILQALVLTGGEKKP
# Protocol: as §1, §2
activation at 1 µM (AMPK beta 1; 1 μM),activation at 3 µM (AMPK beta 2; 3 μM),activation at 1 µM (AMPK beta 2; 1 μM),SMILES,other results
,54%,,O=C(O)c1cccc(C2CC23C(=O)Nc2cc(Cl)c(-c4ccc(-c5ccncc5)cc4)cc23)c1 (centres unmarked) [Example 80],activation at 10 µM (AMPK beta 1): 137%
79%,57%,,Cc1ccc(C2CC23C(=O)Nc2cc(Cl)c(-c4ccc(-c5ccc(-n6cccn6)cc5)cc4)cc23)cc1C(=O)O (centres unmarked) [Example 114],
,,66%,Cc1ccc(C2CC23C(=O)Nc2cc(F)c(-c4ccc(-c5ccc(-n6cccn6)cc5)cc4)cc23)cc1C(=O)O (centres unmarked) [Example 142],Percentage activation of beta 1 at given concentration (AMPK beta 1; 1 μM): 89% at 1 μM
78%,,38%,CC(C)(C(=O)O)c1ccc(C2CC23C(=O)Nc2cc(F)c(-c4ccc(-c5ccc(-n6cccn6)cc5)cc4)cc23)cc1 (centres unmarked) [Example 158],
,,79%,CC(C)(C(=O)O)c1ccc(C2CC23C(=O)Nc2cc(F)c(-c4ccc(-c5ccc(-n6cncn6)cc5)cc4)cc23)cc1 (centres unmarked) [Example 162],Percentage activation of beta 1 at given concentration (AMPK beta 1; 1 μM): 61% at 1 μM
55%,,84%,COc1ccc(C2CC23C(=O)Nc2cc(F)c(-c4ccc(-c5ccc(-n6cncn6)cc5)cc4)cc23)cc1C(=O)O (centres unmarked) [Example 168],
36%,,61%,COc1ccc(C2CC23C(=O)Nc2cc(F)c(-c4ccc(-c5ccc(-n6ccnn6)cc5)cc4)cc23)cc1C(=O)O (centres unmarked) [Example 169],
58%,,50%,O=C(O)c1cccc(C2CC23C(=O)Nc2cc(F)c(-c4ccc(-c5ccc(-n6cccn6)cc5)cc4)cc23)c1 (centres unmarked) [Example 170],
119%,,60%,O=C(O)Cc1cccc(C2CC23C(=O)Nc2cc(F)c(-c4ccc(-c5ccc(-n6cncn6)cc5)cc4)cc23)c1 (centres unmarked) [Example 175],
91%,,126%,COc1ccc(C2CC23C(=O)Nc2cc(F)c(-c4ccc(-c5ccc(-n6cccn6)cc5)cc4)cc23)cc1CC(=O)O (centres unmarked) [Example 176],
98%,,120%,COc1ccc(C2CC23C(=O)Nc2cc(F)c(-c4ccc(-c5ccc(-n6cncn6)cc5)cc4)cc23)cc1CC(=O)O (centres unmarked) [Example 178],

# The next lines start with the compound.
SMILES,activation at 1 µM (AMPK beta 1; 1 μM),activation at 3 µM (AMPK beta 2; 3 μM),activation at 1 µM (AMPK beta 2; 1 μM),other results
COc1ccc(C2CC23C(=O)Nc2cc(Cl)c(-c4ccc(-c5ccccc5O)cc4)cc23)cc1CC(=O)O (centres unmarked) [Example 25],62%,101%,,
O=C(O)Cc1ccc(C2CC23C(=O)Nc2cc(Cl)c(-c4ccc(-c5ccccc5O)cc4)cc23)cc1 (centres unmarked) [Example 33],,83%,,activation at 3 µM (AMPK beta 1; 3 μM): 71%
COc1ccc(C2CC23C(=O)N(C)c2cc(Cl)c(-c4ccc(-c5ccccc5O)cc4)cc23)cc1CC(=O)O (centres unmarked) [Example 35],,23%,,activation at 3 µM (AMPK beta 1; 3 μM): 27%
CC(C)(C(=O)O)c1ccc(C2CC23C(=O)Nc2cc(Cl)c(-c4ccc(-c5ccccc5O)cc4)cc23)cc1 (centres unmarked) [Example 38],58%,106%,,
CC(C)c1ccc(C2CC23C(=O)N(C)c2cc(Cl)c(-c4ccc(-c5ccncc5O)cc4)cc23)cc1C(=O)O (centres unmarked) [Example 40],,32%,,activation at 3 µM (AMPK beta 1; 3 μM): 99%
CC(C)c1ccc(C2CC23C(=O)Nc2cc(Cl)c(-c4ccc(C5(CO)CC5)cc4)cc23)cc1C(=O)O (centres unmarked) [Example 46],,42%,,activation at 3 µM (AMPK beta 1; 3 μM): 83%
Cc1ccc(C2CC23C(=O)Nc2cc(Cl)c(-c4ccc(-c5ccncc5)cc4)cc23)cc1C(=O)O (centres unmarked) [Example 60],66%,105%,,
Cc1ccc(C2CC23C(=O)Nc2cc(Cl)c(-c4ccc(-c5ccnc(N(C)C)c5)cc4)cc23)cc1C(=O)O (centres unmarked) [Example 86],,49%,,activation at 3 µM (AMPK beta 1; 3 μM): 95%
O=C(O)c1ccc(C2CC23C(=O)Nc2cc(Cl)c(-c4ccc(-c5ccncc5)cc4)cc23)cc1 (centres unmarked) [Example 95],,,,activation at 10 µM (AMPK beta 1): 94%; activation at 10 µM (AMPK beta 2): 34%
Cc1ccc(C2CC23C(=O)Nc2cc(Cl)c(-c4ccc(-c5ccc(S(C)(=O)=O)cc5)cc4)cc23)cc1C(=O)O (centres unmarked) [Example 97],99%,,37%,
Cc1ccc(C2CC23C(=O)N(C)c2cc(Cl)c(-c4ccc(-c5ccncc5)cc4)cc23)cc1C(=O)O (centres unmarked) [Example 101],103%,46%,,
CN1C(=O)C2(CC2c2ccc(CC(=O)O)cc2)c2cc(-c3ccc(-c4ccncc4)cc3)c(Cl)cc21 (centres unmarked) [Example 102],,,,activation at 3 µM (AMPK beta 1; 3 μM): 33%; activation at 10 µM (AMPK beta 2): 115%
CCN1C(=O)C2(CC2c2ccc(C)c(C(=O)O)c2)c2cc(-c3ccc(-c4ccncc4)cc3)c(Cl)cc21 (centres unmarked) [Example 103],,2%,,activation at 3 µM (AMPK beta 1; 3 μM): 74%
Cc1ccc(C2CC23C(=O)N(CC2CC2)c2cc(Cl)c(-c4ccc(-c5ccncc5)cc4)cc23)cc1C(=O)O (centres unmarked) [Example 107],94%,65%,,
Cc1ccc(C2CC23C(=O)N(CC2CC2)c2cc(Cl)c(-c4ccc(-c5ccncc5)cc4)cc23)cc1C(=O)O (centres unmarked) [Example 108],,,,Percentage activation of beta 1 at given concentration (AMPK beta 1; 3 μM): 72% at 3 μM; Percentage activation of beta 2 at given concentration (AMPK beta 2; 3 μM): 54% at 3 μM
Cc1ccc(C2CC23C(=O)Nc2cc(Cl)c(-c4ccc(-c5ccc(-n6cncn6)cc5)cc4)cc23)cc1C(=O)O (centres unmarked) [Example 115],,,114%,Percentage activation of beta 1 at given concentration (AMPK beta 1; 1 μM): 132% at 1 μM

SMILES,activation at 1 µM (AMPK beta 1; 1 μM),activation at 3 µM (AMPK beta 2; 3 μM),activation at 1 µM (AMPK beta 2; 1 μM),other results
COc1ccc(C2CC23C(=O)Nc2cc(Cl)c(-c4ccc(-c5ccc(-n6cncn6)cc5)cc4)cc23)cc1CC(=O)O (centres unmarked) [Example 123],66%,,85%,
Cc1ccc(C2CC23C(=O)Nc2cc(Cl)c(-c4ccc(-c5ccc(-n6cncn6)cc5)cc4)nc23)cc1C(=O)O (centres unmarked) [Example 125],81%,,46%,
COc1ccc(C2CC23C(=O)Nc2cc(Cl)c(-c4ccc(-c5ccc(-n6cncn6)cc5)cc4)cc23)cc1C(=O)O (centres unmarked) [Example 128],66%,198%,,
CCc1ccc(C2CC23C(=O)Nc2cc(Cl)c(-c4ccc(-c5ccc(-n6cncn6)cc5)cc4)cc23)cc1C(=O)O (centres unmarked) [Example 130],52%,,102%,
CC(C)c1ccc(C2CC23C(=O)Nc2cc(Cl)c(-c4ccc(-c5ccc(-n6cncn6)cc5)cc4)cc23)cc1C(=O)O (centres unmarked) [Example 132],59%,,153%,
CCc1ccc(C2CC23C(=O)Nc2cc(Cl)c(-c4ccc(-c5ccc(-n6cncn6)cc5)cc4)nc23)cc1C(=O)O (centres unmarked) [Example 133],49%,,36%,
Cc1ccc(C2CC23C(=O)Nc2cc(Cl)c(-c4ccc(-c5ccc(-n6ccnn6)cc5)cc4)cc23)cc1C(=O)O (centres unmarked) [Example 134],,,,Percentage activation of beta 1 at given concentration (AMPK beta 1; 1 μM): 123% at 1 μM; Percentage activation of beta 2 at given concentration (AMPK beta 2; 1 μM): 47% at 1 μM
Cc1ccc(C2CC23C(=O)Nc2cc(Cl)c(-c4ccc(-c5ccc(-n6ccnn6)cc5)cc4)cc23)cc1C(=O)O (centres unmarked) [Example 135],,,,Percentage activation of beta 1 at given concentration (AMPK beta 1; 1 μM): 97% at 1 μM; Percentage activation of beta 2 at given concentration (AMPK beta 2; 1 μM): 214% at 1 μM
Cc1ccc(C2CC23C(=O)Nc2cc(Cl)c(-c4ccc(-c5ccc(-n6cccn6)cc5)cc4)nc23)cc1C(=O)O (centres unmarked) [Example 138],72%,,173%,
COc1ccc(C2CC23C(=O)Nc2cc(Cl)c(-c4ccc(-c5ccc(-n6ccnn6)cc5)cc4)cc23)cc1C(=O)O (centres unmarked) [Example 139],,,283%,activation at 3 µM (AMPK beta 1; 3 μM): 85%
Cc1ccc(C2CC23C(=O)Nc2cc(F)c(-c4ccc(-c5ccc(-n6cncn6)cc5)cc4)cc23)cc1C(=O)O (centres unmarked) [Example 145],,,,Percentage activation of beta 1 at given concentration (AMPK beta 1; 1 μM): 67% at 1 μM; Percentage activation of beta 2 at given concentration (AMPK beta 2; 1 μM): 138% at 1 μM
Cc1ccc(C2CC23C(=O)Nc2cc(F)c(-c4ccc(-c5ccc(-n6cncn6)cc5)cc4)cc23)cc1C(=O)O (centres unmarked) [Example 146],,,,Percentage activation of beta 1 at given concentration (AMPK beta 1; 1 μM): 78% at 1 μM; Percentage activation of beta 2 at given concentration (AMPK beta 2; 1 μM): 89% at 1 μM
Cc1ccc(C2CC23C(=O)Nc2c3cc(-c3ccc(-c4ccc(-n5cncn5)cc4)cc3)c(Cl)c2Cl)cc1C(=O)O (centres unmarked) [Example 149],26%,,62%,
Cc1ccc(C2CC23C(=O)Nc2cc(Cl)c(-c4ccc(-c5ccc(-n6ccnc6C)cc5)cc4)cc23)cc1C(=O)O (centres unmarked) [Example 150],18%,,81%,
Cc1ccc(C2CC23C(=O)Nc2cc(Cl)c(-c4ccc(-c5ccccc5O)cc4)cc23)cc1CO (centres unmarked) [Example 181],88%,,88%,
Cc1ccc(C2CC23C(=O)Nc2cc(F)c(-c4ccc(-c5ccccc5O)cc4)cc23)cc1CO (centres unmarked) [Example 190],121%,,94%,
